According to ChEMBL document CHEMBL5107958, “Phosphoramidate Prodrugs Continue to Deliver, The Journey of Remdesivir (GS-5734) from RSV to SARS-CoV-2” (ACS Med Chem Lett, 2022):

Key:
Hepatitis C virus [1] = experiment: Antiviral activity against HCV assessed as reduction in viral replication by measuring parent nucleoside compound; format: functional, organism-based, Hepacivirus hominis
Hepatitis C virus [2] = experiment: Antiviral activity against HCV assessed as reduction in viral replication by measuring monophosphate prodrug metabolite; format: functional, organism-based, Hepacivirus hominis
[3] = AUC (0 to infinity) in cynomolgus monkey at 5 mg/kg, po measured for 0.25 to 4 hrs post-administration; format: ADME, organism-based, Macaca fascicularis; set-up: time upper 4 hrs, dose 5 mg/kg, time lower 0.25 hrs, route po; conditions: in vivo
[4] = Prodrug conversion in cynomolgus monkey assessed as AUC (0 to last) of parent nucleoside compound at 5 mg/kg, po measured for 0.25 to 4 hrs post-administration; format: ADME, organism-based, Macaca fascicularis; set-up: time lower 0.25 hrs, dose 5 mg/kg, time upper 4 hrs, route po; conditions: in vivo
[5] = AUC (0 to infinity) in dog at 5 mg/kg, po via gavage measured for 0.25 to 24 hrs post-administration; format: ADME, organism-based, Canis lupus familiaris; set-up: dose 5 mg/kg, time upper 24 hrs, time lower 0.25 hrs, route po; conditions: in vivo
[6] = Prodrug conversion in dog assessed as AUC (0 to last) of parent nucleoside compound at 5 mg/kg, po via gavage measured for 0.25 to 24 hrs post-administration; format: ADME, organism-based, Canis lupus familiaris; set-up: time upper 24 hrs, time lower 0.25 hrs, dose 5 mg/kg, route po; conditions: in vivo
[7] = Half life in Beagle dog at 0.5 mg/kg, iv measured for 0.08 to 24 hrs post-dose; format: ADME, organism-based, Canis lupus familiaris; conditions: in vivo, time 0.08-24 hrs
[8] = Volume of distribution at steady state in Beagle dog at 0.5 mg/kg, iv measured for 0.08 to 24 hrs post-dose; format: ADME, organism-based, Canis lupus familiaris; conditions: in vivo, time 0.08-24 hrs, read-out: Vdss
[9] = AUC (0 to infinity) in Beagle dog at 0.5 mg/kg, iv measured for 0.08 to 24 hrs post-dose; format: ADME, organism-based, Canis lupus familiaris; set-up: dose 0.5 mg/kg, time upper 24 hrs, time lower 0.08 hrs, route iv; conditions: in vivo
[10] = AUC (0 to infinity) in Beagle dog at 3 mg/kg, po via gavage measured for 0.08 to 24 hrs post-dose; format: ADME, organism-based, Canis lupus familiaris; set-up: time lower 0.08 hrs, dose 3 mg/kg, time upper 24 hrs, route po; conditions: in vivo
[11] = Oral bioavailability in Beagle dog at 3 mg/kg administered via gavage measured for 0.08 to 24 hrs post-dose; format: ADME, organism-based, Canis lupus familiaris; conditions: in vivo, time 0.08-24 hrs
[12] = AUC (0 to infinity) in overnight fasted dog at 100 mg/kg, po measured upto 24 hrs; format: ADME, organism-based, Canis lupus familiaris; set-up: dose 100 mg/kg, time < 24 hrs, route po; conditions: in vivo
[13] = Prodrug conversion in overnight fasted dog assessed as AUC (0 to last) of parent nucleoside compound at 100 mg/kg, po measured upto 24 hrs; format: ADME, organism-based, Canis lupus familiaris; set-up: dose 100 mg/kg, time < 24 hrs, route po; conditions: in vivo
[14] = AUC (0 to infinity) in cynomolgus monkey at 30 mg/kg, po; format: ADME, organism-based, Macaca fascicularis; set-up: time infinity, dose 30 mg/kg, route po; conditions: in vivo
[15] = Prodrug conversion in cynomolgus monkey assessed as AUC (0 to last) of parent nucleoside compound at 30 mg/kg, po; format: ADME, organism-based, Macaca fascicularis; set-up: time 0 - last, dose 30 mg/kg, route po; conditions: in vivo
[16] = Prodrug conversion in cynomolgus monkey lung assessed as triphosphate metabolite formation at 30 mg/kg, po measured after 24 hrs; format: ADME, organism-based, Macaca fascicularis; conditions: in vivo
Ebolavirus [17] = experiment: Antiviral activity against Ebola infected in human macrophages assessed as reduction in viral replication; format: functional, organism-based; conditions: Orthoebolavirus, Macrophage
Ebolavirus [18] = experiment: Antiviral activity against Ebola infected in human HeLa cells assessed as reduction in viral replication; format: functional, organism-based; conditions: Orthoebolavirus
Marburgvirus = experiment: Antiviral activity against MARV Rec. Bat371-GFP infected in human Huh-7 cells assessed as reduction in viral replication incubated for 48 to 144 hrs by fluorescence based assay; format: functional, organism-based; conditions: Orthomarburgvirus
Nipah virus [19] = experiment: Antiviral activity against Nipah M1999 infected in human HeLa cells assessed as reduction in viral replication incubated for 48 to 144 hrs by reporter virus assay; format: functional, organism-based; conditions: Henipavirus nipahense
Nipah virus [20] = experiment: Antiviral activity against Nipah B2004 infected in human NCI-H358 cells assessed as reduction in viral replication incubated for 48 to 144 hrs by reporter virus assay; format: functional, organism-based; conditions: Henipavirus nipahense
Measles morbillivirus [21] = experiment: Antiviral activity against Measles Rec.rMVEZGFP(3) infected in human HeLa cells assessed as reduction in viral replication incubated for 48 to 144 hrs by fluorescence based assay; format: functional, organism-based
Measles morbillivirus [22] = experiment: Antiviral activity against Measles virus infected in HMVEC cells assessed as reduction in viral replication; format: functional, organism-based
SARS-CoV = experiment: Antiviral activity against SARS-CoV infected in HAE cells assessed as reduction in viral replication at MOI of 0.5 preincubated for 3 hrs followed by virus removal measured after 48 hrs by Hoechst 33258 staining based assay; format: functional, organism-based; conditions: Severe acute respiratory syndrome-related coronavirus
SARS-CoV-2 [23] = experiment: Antiviral activity against SARS-CoV-2 infected in human A549 cells expressing hACE2 assessed as reduction in viral replication at MOI of 0.025 incubated for 48 hrs by luciferase based assay; format: functional, organism-based; conditions: Severe acute respiratory syndrome coronavirus 2, A549, 48 h
SARS-CoV-2 [24] = experiment: Antiviral activity against SARS-CoV-2 infected in human Huh-7 cells assessed as reduction in virus-induced cytopathic effect at MOI of 0.0037 measured after 4 days by MTS assay; format: functional, organism-based; conditions: Severe acute respiratory syndrome coronavirus 2, Huh-7, 96 h
SARS-CoV-2 [25] = experiment: Antiviral activity against SARS-CoV-2 infected in African green monkey Vero E6 cells assessed as reduction in viral replication; format: functional, organism-based; conditions: Severe acute respiratory syndrome coronavirus 2, Vero C1008
SARS-CoV-2 [26] = experiment: Antiviral activity against SARS-CoV-2 infected in human Caco-2 cells assessed as reduction in viral replication at MOI of 0.01 measured after 72 hrs by qRT-PCR analysis; format: functional, organism-based; conditions: Severe acute respiratory syndrome coronavirus 2, Caco-2, 72 h
SARS-CoV-2 [27] = experiment: Antiviral activity against SARS-CoV-2 infected in human Calu-3 cells assessed as reduction in viral replication at MOI of 0.01 measured after 72 hrs by qRT-PCR analysis; format: functional, organism-based; conditions: Severe acute respiratory syndrome coronavirus 2, Calu-3, 72 h
SARS-CoV-2 [28] = experiment: Antiviral activity against SARS-CoV-2 infected in human Calu-3 2B4 cells assessed as reduction in viral replication at MOI of 0.01 preincubated for 2 hrs followed by viral infection for 30 mins and subsequent virus removal and addition of medium containing compound measured after 72 hrs by RT-qPCR analysis; format: functional, organism-based; conditions: Severe acute respiratory syndrome coronavirus 2, Calu-3 2B4
SARS-CoV-2 [29] = experiment: Antiviral activity against SARS-CoV-2 infected in human PSC-derived lung epithelial cells assessed as reduction in viral replication; format: functional, organism-based; conditions: Severe acute respiratory syndrome coronavirus 2, Epithelial cell
[30] = test system: Middle East respiratory syndrome-related coronavirus; experiment: Antiviral activity against MERS-CoV infected in HAE cells assessed as reduction in viral replication at MOI of 0.5 incubated for 3 hrs followed by virus removal measured after 48 hrs by Hoechst 33258 staining based assay; format: functional, organism-based
Hepatitis C virus [31] = experiment: Antiviral activity against HCV infected in human Huh-7 cells expressing Ces1 assessed as reduction in viral replication by measuring monophosphate prodrug metabolite; format: functional, organism-based, Hepacivirus hominis

Structure (SMILES): CC(C)OC(=O)[C@H](C)N[P@](=O)(OC[C@H]1O[C@@H](n2ccc(=O)[nH]c2=O)[C@@](C)(F)[C@@H]1O)Oc1ccccc1
- EC50 (Hepatitis C virus [1]): > 50000 nM
- EC50 (Hepatitis C virus [2]): 420 nM
- AUC(0-inf) [3]: 0.16 µM·h
- AUClast [4]: 0.12 µM·h
- AUC(0-inf) [5]: 0.78 µM·h
- AUClast [6]: 27 µM·h

Structure (SMILES): CC(C)OC(=O)[C@H](C)N[P@](=O)(OC[C@H]1O[C@@](C#N)(c2cnc3c(N)ncnn23)[C@](C)(O)[C@@H]1OC(=O)C(C)C)Oc1ccccc1
- EC50 (Hepatitis C virus [1]): > 89000 nM
- EC50 (Hepatitis C virus [2]): 460 nM

Structure (SMILES): CCOC(=O)[C@H](C)N[P@@]1(=O)OC[C@H]2O[C@@H](n3cnc4c(OCC)nc(N)nc43)[C@](C)(F)[C@@H]2O1
- half-life [7]: 18 min
- Vd [8]: 0.5 L/kg
- AUC(0-inf) [9]: 0.61 µM·h
- AUC(0-inf) [10]: 1.6 µM·h
- bioavailability [11]: 44%

Structure (SMILES): COC(=O)[C@H](C)NP(=O)(OC[C@@H]1C=C[C@H](n2cc(C)c(=O)[nH]c2=O)O1)Oc1ccc(Br)cc1 (stereo not given in full)
- AUC(0-inf) [12]: 23.1 µM·h
- AUClast [13]: 262 µM·h

Structure (SMILES): CNc1nc(N)nc2c1ncn2[C@@H]1O[C@H](COP(=O)(N[C@@H](C)C(=O)OC(C)C)Oc2ccccc2)[C@@H](O)[C@@]1(C)F (stereo not given in full) [BEMNIFOSBUVIR]
- EC50 (Hepatitis C virus [1]): 69000 nM
- EC50 (Hepatitis C virus [2]): 13 nM

Structure (SMILES): CNc1nc(N)nc2c1ncn2[C@@H]1O[C@H](CO[P@@](=O)(N[C@@H](C)C(=O)OC(C)C)Oc2ccccc2)[C@@H](O)[C@@]1(C)F [BEMNIFOSBUVIR]
- AUC(0-inf) [14]: 0.44 µM·h
- AUClast [15]: 1.56 µM·h
- Drug metabolism [16]: 0.14 nmol/g

Structure (SMILES): COc1nc(N)nc2c1ncn2[C@@H]1O[C@H](COP(=O)(N[C@@H](C)C(=O)OCC(C)(C)C)Oc2cccc3ccccc23)[C@@H](O)[C@@]1(C)O (stereo not given in full) [BMS-986094]
- EC50 (Hepatitis C virus [1]): 3500 nM
- EC50 (Hepatitis C virus [2]): 35 nM
- AUC(0-inf) [14]: 0.026 µM·h

Structure (SMILES): N#C[C@@]1(c2ccc3c(N)ncnn23)O[C@H](CO)[C@@H](O)[C@H]1O [GS-441524]
- EC50 (Ebolavirus [17]): > 20000 nM
- EC50 (Ebolavirus [18]): > 20000 nM
- EC50 (Marburgvirus): 1900 nM
- EC50 (Nipah virus [19]): 2120 nM
- EC50 (Nipah virus [20]): 2460 nM
- EC50 (Measles morbillivirus [21]): 1000 nM
- EC50 (Measles morbillivirus [22]): 770 nM
- EC50 (SARS-CoV): 180 nM
- EC50 (SARS-CoV-2 [23]): 869 nM
- EC50 (SARS-CoV-2 [24]): 1100 nM
- EC50 (SARS-CoV-2 [25]): 470 nM
- EC50 (SARS-CoV-2 [26]): 80 nM
- EC50 (SARS-CoV-2 [27]): 250 nM
- EC50 (SARS-CoV-2 [28]): 620 nM
- EC50 (SARS-CoV-2 [29]): 740 nM
- EC50 [30]: 860 nM

Structure (SMILES): CC(C)OC(=O)[C@@H](C)N[P@@](=O)(OC[C@H]1O[C@@H](n2ccc(=O)[nH]c2=O)[C@](C)(Cl)[C@@H]1O)Oc1ccccc1 [UPRIFOSBUVIR]
- EC50 (Hepatitis C virus [31]): 320 nM
